For test [1], the system named is MDA-MB-231. The experiment in a line: Growth inhibition of human MDA-MB-231 cells by sulforhodamine B assay. Format: functional.
Test [2] deals with A549. The test can be described thus: Growth inhibition of human A549 cells by sulforhodamine B assay. Format: functional.
Test [3] deals with HT-29. The experiment in a line: Growth inhibition of human HT-29 cells by sulforhodamine B assay. Format: functional. The settings on record: for CC50: read-out: LC50 (the source's name).
Test [4] deals with A549. The test can be described thus: Growth inhibition of human A549 cells up to 25 uM by sulforhodamine B assay. Format: functional, cell-based.
For test [5], the system named is HT-29. The test can be described thus: Growth inhibition of human HT-29 cells up to 25 uM by sulforhodamine B assay. The test is classed as functional, cell-based.
The test system of test [6] is MDA-MB-231. The experiment in a line: Growth inhibition of human MDA-MB-231 cells up to 25 uM by sulforhodamine B assay. Format: functional, cell-based.

Activity calls are given as the source filed them. No cut-off for these calls is given here.

For the compound `CC(=O)OCC1([C@H]2CC3=C(C=O)C=C(O3)[C@H]3O[C@]3(C)C[C@@H]3OC(=O)[C@]4(O[C@@H]34)[C@H](OC(C)=O)C2)CO1` (stereo not given in full), the concentration for 50% growth inhibition (GI50) with MDA-MB-231 [1] worked out at 5.1 µM; with A549 [2] it was 5.1 µM; in the test on HT-29 [3], 8.2 µM. Also, in the test on A549 [2], the TGI was determined as 6.9 µM.
On to `C=C(C)[C@H]1CC2=C(C=O)C=C(O2)[C@@H](O)[C@@](C)(O)C[C@@H]2OC(=O)[C@]3(O[C@@H]23)[C@H](OC(C)=O)C1`, for which the result in the test on A549 [4], in the test with HT-29 [5] and in the test on MDA-MB-231 [6] was inactive.
Turning to `C=C(C)[C@H]1CC2=C(C=O)C=C(O2)[C@H](OC(C)=O)[C@@](C)(OC(C)=O)C[C@@H]2OC(=O)[C@]3(O[C@@H]23)[C@H](OC(C)=O)C1` [7-EPI-7,8-DI-O-ACETYLLOPHODIOL A], the figures for the 50% growth inhibitory concentration (GI50) in the test on MDA-MB-231 [1], with A549 [2] and in the test with HT-29 [3] were 3.7 µM, 3.3 µM and 6.2 µM, respectively. Besides, the values for the TGI with A549 [2] and in the test with HT-29 [3] were 3.5 µM and 6.6 µM, respectively. The results for the CC50 in the test on A549 [2] (read-out: LC50 (the source's name)) and in the test on HT-29 [3] were 3.9 µM and 6.9 µM, respectively.
With `C=C(C)[C@H]1CC2=C(C=O)C=C(O2)[C@H]2O[C@@]2(C)C[C@@H]2OC(=O)[C@]3(O[C@@H]23)[C@H](OC(C)=O)C1`, the 50% growth inhibitory concentration (GI50) with MDA-MB-231 [1] turned out to be 4.8 µM; in the test on A549 [2] it was 5.3 µM; in the test on HT-29 [3], 5 µM. Also, the TGI turned out to be 6.2 µM with MDA-MB-231 [1], 8.4 µM in the test with A549 [2] and 6 µM with HT-29 [3]. Moreover, in the test with HT-29 [3], the CC50 was determined as 8.4 µM.
In turn, `C=C(C)[C@H]1CC2=C(C=O)C=C(O2)[C@H](O)[C@](C)(O)C[C@@H]2OC(=O)[C@]3(O[C@@H]23)[C@H](OC(C)=O)C1` [LOPHODIOL B] returned a GI50 in the test with HT-29 [3] of 14.7 µM. This lies in the double-digit micromolar range.
For `C=C(C)[C@H]1CC2=C(C=O)C=C(O2)[C@H](O)[C@@](C)(O)C[C@@H]2OC(=O)[C@]3(O[C@@H]23)[C@H](OC(C)=O)C1` [7-EPI-LOPHODIOL A], the 50% growth inhibitory concentration (GI50) in the test on MDA-MB-231 [1] turned out to be 3.2 µM; in the test on A549 [2] it was 3.9 µM; in the test with HT-29 [3] it was 2.8 µM. The compound further registered an LC50 (50% lethal concentration) with MDA-MB-231 [1] of 8.5 µM. Moreover, the figures for the concentration for total growth inhibition (TGI) in the test with MDA-MB-231 [1] and in the test on HT-29 [3] were 4.6 µM and 4.8 µM, respectively.
Regarding `C=C(C)[C@@H]1CCC2=C[C@H](C[C@@]3(C)O[C@@H]3C(=O)/C=C(\C)C(=O)C1)OC2=O` [ISOEPOXYLOPHODIONE], in the test on MDA-MB-231 [1], halving of growth (GI50) required 2.7 µM, the LC50 (50% lethal concentration) is 4.1 µM and the TGI was 3.2 µM. In the test with A549 [2], this compound came in with a GI50 of 2.9 µM and a TGI of 5.5 µM. For the same compound, in the test on HT-29 [3], halving of growth (GI50) required 4.1 µM, net growth stopped (TGI) at 4.4 µM and the CC50 is 4.9 µM.
In the case of `C=C(COC(C)=O)[C@H]1CC2=C(C=O)C=C(O2)[C@H]2O[C@]2(C)C[C@@H]2OC(=O)[C@]3(O[C@@H]23)[C@H](OC(C)=O)C1`, the concentration for 50% growth inhibition (GI50) with MDA-MB-231 [1] stood at 14.5 µM; with A549 [2] it was 17.9 µM.
Consider `C=C(C)[C@@H]1CC2=C(C=O)C=C(O2)[C@@H]2O[C@@]2(C)C[C@H]2OC(=O)[C@@]3(O[C@H]23)[C@@H](OC(C)=O)C1`, for which the result in the test on A549 [4], in the test on HT-29 [5] and in the test with MDA-MB-231 [6] was inactive.
As for `C=C(C)[C@@H]1CC[C@]2(C)O[C@H]2CC[C@H](C)/C=C/C=C(/C)C(=O)C1`, the outcome in the test with A549 [4], in the test with HT-29 [5] and in the test on MDA-MB-231 [6] was inactive.
Take `CC(=O)O[C@@H]1C[C@@H](C2(C)CO2)CC2=C(C=O)C=C(O2)[C@H]2O[C@]2(C)C[C@@H]2OC(=O)[C@]13O[C@@H]23` (stereo not given in full): it took 5.8 µM to inhibit growth with MDA-MB-231 [1] by half (GI50). In the test with A549 [2], this compound had a concentration for 50% growth inhibition (GI50) of 6 µM and a TGI of 9.7 µM. In the test with HT-29 [3], growth was halved (GI50) at 4.6 µM, the TGI was determined as 6.2 µM and the CC50 is 9.2 µM.

The values above are taken from ChEMBL document CHEMBL1158130, “Cembrane diterpenes from the gorgonian Lophogorgia peruana” (2006).
